Data from ChEMBL document CHEMBL3991601, “The target landscape of clinical kinase drugs” (Science, 2017).
Calls of active or inactive are those of the source. Cut-off read from the data, not from the text of the source, for most assays here: actives have a measured Kd and inactives only a lower limit.

Tests used:
[1] = target: Tyrosine-protein kinase CSK (Homo sapiens, UniProt P41240)
[2] = target: Citron Rho-interacting kinase (Homo sapiens, UniProt O14578)
[3] = target: PAS domain-containing serine/threonine-protein kinase (Homo sapiens, UniProt Q96RG2)
[4] = target: T1, Mitogen-activated protein kinase 15 (Homo sapiens, UniProt Q8TD08)
T1 sequence (Q8TD08 whole entry): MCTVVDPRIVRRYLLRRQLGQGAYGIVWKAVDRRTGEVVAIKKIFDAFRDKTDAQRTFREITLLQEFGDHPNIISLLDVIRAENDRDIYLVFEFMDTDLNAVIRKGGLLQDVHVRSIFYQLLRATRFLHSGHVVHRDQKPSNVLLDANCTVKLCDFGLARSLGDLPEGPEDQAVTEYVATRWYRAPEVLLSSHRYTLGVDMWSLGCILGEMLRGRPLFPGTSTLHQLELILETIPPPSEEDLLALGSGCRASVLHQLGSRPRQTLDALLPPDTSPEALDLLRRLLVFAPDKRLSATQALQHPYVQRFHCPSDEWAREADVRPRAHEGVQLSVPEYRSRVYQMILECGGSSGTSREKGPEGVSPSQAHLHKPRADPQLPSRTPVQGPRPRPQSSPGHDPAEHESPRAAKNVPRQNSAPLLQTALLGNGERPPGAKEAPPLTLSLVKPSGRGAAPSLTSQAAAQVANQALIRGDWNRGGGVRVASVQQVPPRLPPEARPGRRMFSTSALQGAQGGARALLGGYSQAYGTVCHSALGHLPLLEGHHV

[5] = target: Calcium/calmodulin-dependent protein kinase type II subunit gamma (Homo sapiens, UniProt Q13555)
Chain of Calcium/calmodulin-dependent protein kinase type II subunit gamma (Q13555 whole entry): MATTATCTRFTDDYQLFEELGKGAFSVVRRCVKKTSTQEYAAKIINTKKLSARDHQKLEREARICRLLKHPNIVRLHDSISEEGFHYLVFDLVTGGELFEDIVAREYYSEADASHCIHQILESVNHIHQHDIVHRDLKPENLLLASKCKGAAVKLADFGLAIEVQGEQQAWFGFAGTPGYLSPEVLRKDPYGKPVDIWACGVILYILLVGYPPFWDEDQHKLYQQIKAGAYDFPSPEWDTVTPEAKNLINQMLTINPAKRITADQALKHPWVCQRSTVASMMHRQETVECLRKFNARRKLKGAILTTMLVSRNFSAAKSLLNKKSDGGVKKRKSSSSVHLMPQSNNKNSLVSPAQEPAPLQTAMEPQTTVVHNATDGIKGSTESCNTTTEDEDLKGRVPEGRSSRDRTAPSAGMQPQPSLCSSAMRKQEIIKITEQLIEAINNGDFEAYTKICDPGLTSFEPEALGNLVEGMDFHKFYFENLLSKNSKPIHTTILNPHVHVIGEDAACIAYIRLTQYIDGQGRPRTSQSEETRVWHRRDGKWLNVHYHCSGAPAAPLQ

[6] = target: Cyclin-dependent kinase 5 (Homo sapiens, UniProt Q00535)
Chain of Cyclin-dependent kinase 5 (Q00535 whole entry): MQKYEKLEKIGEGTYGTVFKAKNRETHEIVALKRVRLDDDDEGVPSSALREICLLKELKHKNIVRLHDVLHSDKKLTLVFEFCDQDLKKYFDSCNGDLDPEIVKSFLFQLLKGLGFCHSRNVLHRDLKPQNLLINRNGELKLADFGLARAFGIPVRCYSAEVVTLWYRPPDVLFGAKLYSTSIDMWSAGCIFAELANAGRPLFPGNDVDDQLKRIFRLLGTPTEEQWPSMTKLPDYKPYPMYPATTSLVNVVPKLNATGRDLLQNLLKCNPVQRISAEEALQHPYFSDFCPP

[7] = target: T2, Adenine phosphoribosyltransferase (Homo sapiens, UniProt P07741)
T2 sequence (P07741 whole entry): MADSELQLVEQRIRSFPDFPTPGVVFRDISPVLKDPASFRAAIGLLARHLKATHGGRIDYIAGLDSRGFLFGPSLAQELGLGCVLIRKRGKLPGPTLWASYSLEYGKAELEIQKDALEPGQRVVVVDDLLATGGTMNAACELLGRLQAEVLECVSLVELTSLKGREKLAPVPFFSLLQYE

[8] = target: Cyclin-dependent kinase 4 (Homo sapiens, UniProt P11802)
[9] = target: GTP-binding nuclear protein Ran (Homo sapiens, UniProt P62826)
GTP-binding protein 4 = GTP-binding protein 4 (Homo sapiens, UniProt Q9BZE4)
[10] = target: Ras-related protein Rab-6A (Homo sapiens, UniProt P20340)
Chain of Ras-related protein Rab-6A (P20340 whole entry): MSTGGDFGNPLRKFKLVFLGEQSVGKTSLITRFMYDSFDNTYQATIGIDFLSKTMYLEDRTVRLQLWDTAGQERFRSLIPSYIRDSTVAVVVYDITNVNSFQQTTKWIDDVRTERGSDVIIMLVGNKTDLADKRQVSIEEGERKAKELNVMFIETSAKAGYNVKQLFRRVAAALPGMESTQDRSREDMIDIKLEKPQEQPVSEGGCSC

[11] = target: Cyclin-dependent kinase 2 (Homo sapiens, UniProt P24941)
Activin receptor type-2B = Activin receptor type-2B (Homo sapiens, UniProt Q13705)
Chain of Activin receptor type-2B (Q13705 whole entry): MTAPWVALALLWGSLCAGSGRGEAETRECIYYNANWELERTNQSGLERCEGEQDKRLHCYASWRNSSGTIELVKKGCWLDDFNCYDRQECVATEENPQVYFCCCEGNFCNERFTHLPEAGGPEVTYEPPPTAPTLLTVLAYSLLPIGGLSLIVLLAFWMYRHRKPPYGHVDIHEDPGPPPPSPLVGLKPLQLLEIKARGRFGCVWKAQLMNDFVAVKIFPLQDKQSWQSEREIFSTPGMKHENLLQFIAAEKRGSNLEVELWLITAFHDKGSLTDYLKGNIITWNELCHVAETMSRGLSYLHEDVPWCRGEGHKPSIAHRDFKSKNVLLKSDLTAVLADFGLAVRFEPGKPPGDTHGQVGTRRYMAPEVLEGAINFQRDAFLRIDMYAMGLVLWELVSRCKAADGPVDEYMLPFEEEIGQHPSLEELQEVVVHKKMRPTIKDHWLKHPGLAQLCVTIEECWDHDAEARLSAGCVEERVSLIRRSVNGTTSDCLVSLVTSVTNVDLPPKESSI

[12] = target: RAC-alpha serine/threonine-protein kinase (Homo sapiens, UniProt P31749)
Chain of RAC-alpha serine/threonine-protein kinase (P31749 whole entry, the tested form may be a part): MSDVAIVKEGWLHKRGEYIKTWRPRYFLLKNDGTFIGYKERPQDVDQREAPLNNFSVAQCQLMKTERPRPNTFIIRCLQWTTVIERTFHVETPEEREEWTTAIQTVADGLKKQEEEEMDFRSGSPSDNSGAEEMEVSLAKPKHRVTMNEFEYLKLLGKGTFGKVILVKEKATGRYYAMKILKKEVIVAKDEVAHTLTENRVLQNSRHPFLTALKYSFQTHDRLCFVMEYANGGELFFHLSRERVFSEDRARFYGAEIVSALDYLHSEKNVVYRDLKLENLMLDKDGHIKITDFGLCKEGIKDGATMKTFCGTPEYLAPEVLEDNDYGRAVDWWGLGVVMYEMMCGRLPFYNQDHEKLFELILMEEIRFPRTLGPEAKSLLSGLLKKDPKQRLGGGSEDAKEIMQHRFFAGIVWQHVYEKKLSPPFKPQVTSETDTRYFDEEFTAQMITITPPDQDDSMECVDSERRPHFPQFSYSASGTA

LIM domain kinase 1 = LIM domain kinase 1 (Homo sapiens, UniProt P53667)
[13] = target: Mitogen-activated protein kinase kinase kinase kinase 1 (Homo sapiens, UniProt Q92918)
Chain of Mitogen-activated protein kinase kinase kinase kinase 1 (Q92918 whole entry): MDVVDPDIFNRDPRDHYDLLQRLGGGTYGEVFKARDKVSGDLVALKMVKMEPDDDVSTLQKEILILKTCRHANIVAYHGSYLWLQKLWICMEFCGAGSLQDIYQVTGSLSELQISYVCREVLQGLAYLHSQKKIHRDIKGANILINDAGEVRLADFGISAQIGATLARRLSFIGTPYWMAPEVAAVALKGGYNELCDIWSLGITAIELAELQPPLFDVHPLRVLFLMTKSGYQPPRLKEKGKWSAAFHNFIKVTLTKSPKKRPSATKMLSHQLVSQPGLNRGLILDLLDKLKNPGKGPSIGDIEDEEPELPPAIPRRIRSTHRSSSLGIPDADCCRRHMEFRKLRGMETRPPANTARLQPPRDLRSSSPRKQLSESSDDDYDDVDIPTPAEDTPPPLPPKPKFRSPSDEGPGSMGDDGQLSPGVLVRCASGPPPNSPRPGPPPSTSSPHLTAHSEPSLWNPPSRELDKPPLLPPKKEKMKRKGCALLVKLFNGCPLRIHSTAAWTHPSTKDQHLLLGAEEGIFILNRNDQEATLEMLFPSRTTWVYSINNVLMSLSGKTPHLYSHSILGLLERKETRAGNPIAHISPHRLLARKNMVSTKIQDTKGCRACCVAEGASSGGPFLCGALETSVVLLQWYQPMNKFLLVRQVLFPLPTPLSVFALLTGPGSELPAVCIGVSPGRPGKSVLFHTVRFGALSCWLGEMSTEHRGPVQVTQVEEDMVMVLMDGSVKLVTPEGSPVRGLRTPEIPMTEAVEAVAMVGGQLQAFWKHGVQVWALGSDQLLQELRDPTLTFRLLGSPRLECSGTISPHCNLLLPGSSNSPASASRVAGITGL

[14] = target: T3, Serine/threonine-protein kinase PLK4 (Homo sapiens, UniProt O00444)
T3 sequence (O00444 whole entry): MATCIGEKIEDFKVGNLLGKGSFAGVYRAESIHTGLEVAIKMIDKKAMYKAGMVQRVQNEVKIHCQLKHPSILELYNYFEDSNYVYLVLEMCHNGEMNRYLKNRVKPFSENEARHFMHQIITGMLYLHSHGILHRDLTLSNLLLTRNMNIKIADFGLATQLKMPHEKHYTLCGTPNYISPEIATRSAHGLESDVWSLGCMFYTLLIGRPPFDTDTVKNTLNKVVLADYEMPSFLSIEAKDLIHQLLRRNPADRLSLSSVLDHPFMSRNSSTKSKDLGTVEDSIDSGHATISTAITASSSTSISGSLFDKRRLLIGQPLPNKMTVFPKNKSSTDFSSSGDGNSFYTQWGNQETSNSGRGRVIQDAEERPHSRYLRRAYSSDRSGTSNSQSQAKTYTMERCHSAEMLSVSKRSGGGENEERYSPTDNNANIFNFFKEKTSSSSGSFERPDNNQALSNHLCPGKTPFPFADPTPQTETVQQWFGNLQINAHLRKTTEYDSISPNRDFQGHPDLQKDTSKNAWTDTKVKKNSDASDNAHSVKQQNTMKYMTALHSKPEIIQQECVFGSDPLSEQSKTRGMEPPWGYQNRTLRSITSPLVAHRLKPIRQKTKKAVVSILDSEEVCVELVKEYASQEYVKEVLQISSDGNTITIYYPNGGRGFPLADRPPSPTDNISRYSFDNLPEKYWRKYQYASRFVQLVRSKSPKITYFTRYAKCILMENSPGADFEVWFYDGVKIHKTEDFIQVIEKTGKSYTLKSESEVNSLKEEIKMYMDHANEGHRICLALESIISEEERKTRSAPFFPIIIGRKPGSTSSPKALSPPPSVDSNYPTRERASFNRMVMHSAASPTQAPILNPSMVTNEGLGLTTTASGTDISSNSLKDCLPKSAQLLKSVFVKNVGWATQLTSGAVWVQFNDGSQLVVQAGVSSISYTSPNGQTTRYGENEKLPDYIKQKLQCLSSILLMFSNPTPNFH

[15] = target: Glycogen synthase kinase-3 beta (Homo sapiens, UniProt P49841)
[16] = target: Casein kinase I isoform delta (Homo sapiens, UniProt P48730)
[17] = target: Membrane-associated progesterone receptor component 1 (Homo sapiens, UniProt O00264)
Note: in the data inactive means no Kd found up to 30 µM.

Chain of Citron Rho-interacting kinase (O14578 whole entry, the tested form may be a part): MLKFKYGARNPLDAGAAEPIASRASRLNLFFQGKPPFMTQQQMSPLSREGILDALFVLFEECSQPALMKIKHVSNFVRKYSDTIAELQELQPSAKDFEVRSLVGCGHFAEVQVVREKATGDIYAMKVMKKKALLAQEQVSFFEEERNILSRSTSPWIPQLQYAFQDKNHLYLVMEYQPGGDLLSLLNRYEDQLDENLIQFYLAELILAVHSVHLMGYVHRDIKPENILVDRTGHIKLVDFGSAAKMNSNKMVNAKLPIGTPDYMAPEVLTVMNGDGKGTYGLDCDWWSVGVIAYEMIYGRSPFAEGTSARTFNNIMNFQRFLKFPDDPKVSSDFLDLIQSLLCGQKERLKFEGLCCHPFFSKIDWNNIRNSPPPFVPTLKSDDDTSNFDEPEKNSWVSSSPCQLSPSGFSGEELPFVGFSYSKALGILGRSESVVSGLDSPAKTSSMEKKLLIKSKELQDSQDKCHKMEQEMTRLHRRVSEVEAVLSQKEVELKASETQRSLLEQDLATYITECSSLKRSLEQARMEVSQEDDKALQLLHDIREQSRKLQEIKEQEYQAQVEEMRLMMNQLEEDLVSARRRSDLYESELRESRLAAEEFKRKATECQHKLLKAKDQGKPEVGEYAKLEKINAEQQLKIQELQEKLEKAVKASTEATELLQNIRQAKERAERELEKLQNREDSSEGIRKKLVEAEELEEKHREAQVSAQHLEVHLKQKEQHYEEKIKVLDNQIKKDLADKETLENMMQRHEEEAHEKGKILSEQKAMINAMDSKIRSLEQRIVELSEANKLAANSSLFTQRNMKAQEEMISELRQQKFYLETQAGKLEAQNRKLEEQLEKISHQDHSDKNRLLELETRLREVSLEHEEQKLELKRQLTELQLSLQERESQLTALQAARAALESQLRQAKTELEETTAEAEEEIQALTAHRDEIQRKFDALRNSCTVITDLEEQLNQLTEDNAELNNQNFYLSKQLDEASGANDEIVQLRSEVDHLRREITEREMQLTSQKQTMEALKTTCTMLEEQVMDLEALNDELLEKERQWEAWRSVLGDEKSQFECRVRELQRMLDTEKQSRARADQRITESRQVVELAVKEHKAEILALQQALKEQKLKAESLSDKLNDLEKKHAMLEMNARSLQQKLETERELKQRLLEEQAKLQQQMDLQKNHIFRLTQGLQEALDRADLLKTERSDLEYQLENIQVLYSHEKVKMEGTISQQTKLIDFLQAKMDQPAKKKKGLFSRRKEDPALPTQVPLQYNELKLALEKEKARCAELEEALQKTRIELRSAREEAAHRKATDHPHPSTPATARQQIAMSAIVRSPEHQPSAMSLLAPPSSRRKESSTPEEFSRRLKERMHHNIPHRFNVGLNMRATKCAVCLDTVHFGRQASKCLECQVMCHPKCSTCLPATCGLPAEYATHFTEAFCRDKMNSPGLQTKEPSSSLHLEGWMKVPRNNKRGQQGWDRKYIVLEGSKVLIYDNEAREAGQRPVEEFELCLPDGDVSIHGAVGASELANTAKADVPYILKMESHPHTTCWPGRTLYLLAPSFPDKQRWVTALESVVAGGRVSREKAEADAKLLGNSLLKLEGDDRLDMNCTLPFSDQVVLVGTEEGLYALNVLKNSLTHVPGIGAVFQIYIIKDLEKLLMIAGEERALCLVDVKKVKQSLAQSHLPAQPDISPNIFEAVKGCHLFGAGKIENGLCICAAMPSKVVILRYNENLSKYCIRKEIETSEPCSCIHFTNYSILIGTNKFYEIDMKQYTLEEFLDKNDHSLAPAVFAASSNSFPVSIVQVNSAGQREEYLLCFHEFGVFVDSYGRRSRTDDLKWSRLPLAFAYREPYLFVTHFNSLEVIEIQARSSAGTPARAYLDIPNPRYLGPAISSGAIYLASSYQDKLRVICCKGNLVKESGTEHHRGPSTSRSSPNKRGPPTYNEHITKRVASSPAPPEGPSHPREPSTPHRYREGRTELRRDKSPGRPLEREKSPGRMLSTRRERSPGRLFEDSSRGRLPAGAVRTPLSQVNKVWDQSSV

SMILES	Kd [1]	Kd [2]	Kd [3]	Kd [5]	Kd [6]	Kd [7]	Kd [8]	Kd [9]	Kd (GTP-binding protein 4)	Kd [10]	Kd [11]	Kd (Activin receptor type-2B)	Kd [12]	Kd (LIM domain kinase 1)	Kd [13]	Kd [14]	Kd [15]	Kd [16]	Kd [17]	Kd [4]
CC(=O)c1cnc2ccc(-c3cc(Cl)c(O)c(Cl)c3)nc2c1N[C@H]1CC[C@H](CN(C)C)CC1	> 30 µM (inactive)	0.098 µM (active)	> 30 µM (inactive)	> 30 µM (inactive)	0.253 µM (active)	> 30 µM (inactive)	> 30 µM (inactive)	> 30 µM (inactive)	> 30 µM (inactive)	> 30 µM (inactive)	0.091 µM (active)	> 30 µM (inactive)	> 30 µM (inactive)	> 30 µM (inactive)	> 30 µM (inactive)	–	–	–	–	0.09 µM (active)
Cc1cccc(-c2nn3c(c2-c2ccnc4ccc(C(N)=O)cc24)CCC3)n1 [GALUNISERTIB]	> 30 µM (inactive)	> 30 µM (inactive)	> 30 µM (inactive)	> 30 µM (inactive)	> 30 µM (inactive)	–	> 30 µM (inactive)	> 30 µM (inactive)	> 30 µM (inactive)	> 30 µM (inactive)	> 30 µM (inactive)	> 30 µM (inactive)	> 30 µM (inactive)	> 30 µM (inactive)	> 30 µM (inactive)	> 30 µM (inactive)	> 30 µM (inactive)	16.1 µM (active)	> 30 µM (inactive)	> 30 µM (inactive)
Cn1cc(-c2cnc3ccc4ccc(CS(=O)(=O)NCc5ccccn5)cc4c(=O)c3c2)cn1 [MK-8033]	> 30 µM (inactive)	> 30 µM (inactive)	> 30 µM (inactive)	> 30 µM (inactive)	> 30 µM (inactive)	–	> 30 µM (inactive)	> 30 µM (inactive)	> 30 µM (inactive)	> 30 µM (inactive)	> 30 µM (inactive)	> 30 µM (inactive)	> 30 µM (inactive)	> 30 µM (inactive)	> 30 µM (inactive)	> 30 µM (inactive)	> 30 µM (inactive)	> 30 µM (inactive)	> 30 µM (inactive)	> 30 µM (inactive)
Cc1cc(Nc2ncnc3ccc(NC4=NC(C)(C)CO4)cc23)ccc1Oc1ccn2ncnc2c1 [TUCATINIB]	> 30 µM (inactive)	> 30 µM (inactive)	> 30 µM (inactive)	> 30 µM (inactive)	> 30 µM (inactive)	–	> 30 µM (inactive)	> 30 µM (inactive)	> 30 µM (inactive)	> 30 µM (inactive)	> 30 µM (inactive)	> 30 µM (inactive)	> 30 µM (inactive)	> 30 µM (inactive)	> 30 µM (inactive)	> 30 µM (inactive)	> 30 µM (inactive)	> 30 µM (inactive)	> 30 µM (inactive)	> 30 µM (inactive)

Further lines, with some results ahead:

Kd [1]	Kd [2]	Kd [3]	Kd [5]	Kd [6]	Kd [7]	Kd [8]	Kd [9]	Kd (GTP-binding protein 4)	Kd [10]	Kd [11]	Kd (Activin receptor type-2B)	Kd [12]	Kd (LIM domain kinase 1)	Kd [13]	Kd [14]	Kd [15]	Kd [16]	Kd [17]	SMILES	Kd [4]
> 30 µM (inactive)	> 30 µM (inactive)	> 30 µM (inactive)	> 30 µM (inactive)	> 30 µM (inactive)	–	> 30 µM (inactive)	> 30 µM (inactive)	> 30 µM (inactive)	> 30 µM (inactive)	> 30 µM (inactive)	> 30 µM (inactive)	> 30 µM (inactive)	> 30 µM (inactive)	> 30 µM (inactive)	> 30 µM (inactive)	> 30 µM (inactive)	> 30 µM (inactive)	> 30 µM (inactive)	C=CC(=O)Nc1cc2c(Nc3ccc(F)c(Cl)c3)ncnc2cc1C#CC(C)(C)N1CCN(C)CC1 [AV-412 FREE BASE]	> 30 µM (inactive)
> 30 µM (inactive)	> 30 µM (inactive)	> 30 µM (inactive)	> 30 µM (inactive)	> 30 µM (inactive)	> 30 µM (inactive)	> 30 µM (inactive)	> 30 µM (inactive)	> 30 µM (inactive)	> 30 µM (inactive)	> 30 µM (inactive)	> 30 µM (inactive)	> 30 µM (inactive)	> 30 µM (inactive)	> 30 µM (inactive)	> 30 µM (inactive)	> 30 µM (inactive)	> 30 µM (inactive)	–	COc1c(OCCCN2CCOCC2)ccc2c1N=C(NC(=O)c1cnc(N)nc1)N1CCN=C21 [COPANLISIB]	> 30 µM (inactive)
> 30 µM (inactive)	> 30 µM (inactive)	> 30 µM (inactive)	> 30 µM (inactive)	> 30 µM (inactive)	> 30 µM (inactive)	> 30 µM (inactive)	> 30 µM (inactive)	> 30 µM (inactive)	> 30 µM (inactive)	> 30 µM (inactive)	> 30 µM (inactive)	> 30 µM (inactive)	> 30 µM (inactive)	> 30 µM (inactive)	> 30 µM (inactive)	> 30 µM (inactive)	> 30 µM (inactive)	–	COc1ccc(S(=O)(=O)N(C(C)=O)c2ccccc2/C=C/c2cc[n+]([O-])cc2)cc1 [HMN-214]	> 30 µM (inactive)
> 30 µM (inactive)	> 30 µM (inactive)	> 30 µM (inactive)	> 30 µM (inactive)	> 30 µM (inactive)	–	–	> 30 µM (inactive)	> 30 µM (inactive)	> 30 µM (inactive)	> 30 µM (inactive)	> 30 µM (inactive)	> 30 µM (inactive)	> 30 µM (inactive)	> 30 µM (inactive)	> 30 µM (inactive)	> 30 µM (inactive)	> 30 µM (inactive)	> 30 µM (inactive)	FC(F)(F)c1ccc(/C=C/c2nc(COc3ccc(CCCCn4ccnn4)cc3)co2)cc1 [MUBRITINIB]	> 30 µM (inactive)
> 30 µM (inactive)	> 30 µM (inactive)	> 30 µM (inactive)	> 30 µM (inactive)	> 30 µM (inactive)	> 30 µM (inactive)	> 30 µM (inactive)	> 30 µM (inactive)	> 30 µM (inactive)	> 30 µM (inactive)	> 30 µM (inactive)	> 30 µM (inactive)	> 30 µM (inactive)	> 30 µM (inactive)	> 30 µM (inactive)	> 30 µM (inactive)	> 30 µM (inactive)	> 30 µM (inactive)	–	N#CC1(c2ccc(NC(=O)c3cccnc3NCc3ccncc3)cc2)CCCC1 [RIVOCERANIB]	> 30 µM (inactive)
